Assay results published in patent publication US5219884A, “Immunosuppressant” (Taito Co., Ltd., priority 1990, dated 1993).
≈ marks a conversion by molar mass, not a printed value. Read-outs that look alike come from different tables or passages of the source.

Experiments:
[1] = test system: human allogenic MLR (peripheral blood lymphocytes); assay: human allogenic MLR-suppressive activity; format: cell-based
Experimental: The human allogenic MLR-suppressive activity was assayed as follows:
Human peripheral blood lymphocytes obtained by Ficoll-Paque density gradient centrifugation of normal human peripheral blood were suspended in the RPMI1640 medium supplemented with 10% FCS, placed in plastic dishes, and incubated at 37° C. in an atmosphere of 5% carbon dioxide for 2 hours. After termination of incubation, the supernatant after gentle pipetting was harvested and centrifuged (1000 rpm, for 5 minutes) to obtain plastic-nonadherent cells. The plastic-nonadherent cells were allowed to pass through a nylon-wool column to give nylon-nonadherent cells, and the concentration of the cell suspension was adjusted to 4×10^6 cells/ml by using the RPMI1640 culture medium supplemented with 10% FCS, and used as the responder cell suspension.
The plastic-adherent cells were removed from the plastic dish by vigorous pipetting after addition of phosphate buffered saline supplemented with 5% FCS and 0.02% disodium ethylenediamine-tetraacetic acid (EDTA). The plastic-adherent cells were treated with 40 μg/ml of mitomycin C at 37° C. for 60 minutes, washed three times, and suspended to the concentration of 4×10^6 cells/ml in the RPMI1640 culture medium supplemented with 10% FCS. The resultant suspension was used as the stimulator cell suspension. Fifty μl of the responder cell suspension from the donor A or C was mixed with 50 μl of the stimulator cell suspension from the donor B or D, to which 100 μl of the test substance was added, and cultured at 37° C. in the an atmosphere 5% carbon dioxide for 5 days.
After termination of the culture, 1.0 μCi/well of ^3 H-thymidine was added, and after 18 hours of culture, the cells were harvested by a cell-harvester. The radioactivity incorporated into the cells was measured by a liquid scintillation counter as the index of blastogenic response of lymphocytes in human allogenic MLR. The suppression of human allogenic MLR was evaluated by calculating the percent suppression by the following formula. [formula]

[2] = test system: IL2-dependent mouse cell line CTLL-2; assay: suppression of IL-2 induced 3H-thymidine incorporation of CTLL-2; format: cell-based; details: for inhibition at 0.1 µg/mL / inhibition at 10 µg/mL / inhibition at 0.01 µg/mL / inhibition at 1 µg/mL: Mus musculus; for inhibition at 0.1 µg/mL / inhibition at 10 µg/mL / inhibition at 0.01 µg/mL: read-out: Suppression
Experimental: IL2-dependent mouse cell line CTLL-2 cells were suspended in the RPMI1640 culture medium supplemented with 30% FCS to a concentration of 2×10^5 cells/ml. The suspension (50 μl) and 50 μl of concanavalin A-stimulated rat spleen cell culture supernatants containing IL2 were added to each well of 96-well microculture plates in which 100 μl of the test substance had been placed. After culturing at 37° C. in an atmosphere of 5% carbon dioxide for 20, 44, or 68 hours, 0.5 μCi/well of ^3 H-thymidine was added, and cultured for 4 hours under the same conditions. After termination of the culture, the cells were harvested by a cell harvester, and the radioactivity incorporated into the cells was measured by a liquid scintillation counter.

[3] = test system: anti-sheep red blood cell antibody production in BALB/c mice; assay: suppression of mouse anti-sheep red blood cell antibody production (PFC); format: in vivo; details: Experiment 1, 4 days
Experimental: (§1) Males 5- to 7-week-old BALB/c mice were immunized with sheep red blood cells (SRBC), and the spleen was resected three or four days later. By counting the plaque forming cells (PFC), suppressive effect on the production of the anti-sheep red blood cell antibody was examined as follows.
(§2) BALB/c mice were immunized with SRBC (1×10^7 cells/mouse, intravenous administration), and ISP-I in the Example 1 was administered intraperitoneally for 4 consecutive days from the day of immunization. Four days after immunization (the next day of the final administration), the spleen was resected and the anti-sheep red blood cell antibody-producing cells were determined by the direct plaque method. At the same time the body weight of the mouse, wet weight of the thymus and the spleen, and numbers of spleen cells were also determined.
(§3) BALB/c mice were immunized with SRBC (5×10^7 cells/mouse, intravenous administration), and the compound in the Example 5 was administered intraperitoneally for 4 consecutive days from the day of immunization. Four days after immunization (the next day of the final administration), the spleen was resected, and the anti-sheep red blood cell antibody-producing cells were determined by the direct plaque method. At the same time, the body weight of the mouse, wet weight of the thymus and the spleen, and numbers of spleen cells were also determined.

[4] = body weight, wet weight of thymus and spleen, number of spleen cells in SRBC-immunized mice; format: in vivo, mouse; details: for Number of spleen cells: Experiment 1; for Body weight / Wet weight spleen / Wet weight thymus: mouse, in vivo
Experimental: as §1, §2, §3

SMILES: CCCCCCC(=O)CCCCCC/C=C/CC(O)C(O)C(N)(CO)C(=O)O (stereo not drawn) [Example 1]
- inhibition at 0.0001 µg/mL ([1]; Homo sapiens, Lymphocyte, donor A/donor B, 0.0001 μg/ml, read-out: Suppression): 51.8%
- inhibition at 0.001 µg/mL ([1]; Homo sapiens, Lymphocyte, donor A/donor B, 0.001 μg/ml, read-out: Suppression): 77.7%
- inhibition at 0.01 µg/mL ([1]; Homo sapiens, Lymphocyte, donor A/donor B, 0.01 μg/ml, read-out: Suppression): 73.3%
- inhibition at 0.1 µg/mL ([1]; Homo sapiens, Lymphocyte, donor A/donor B, 0.1 μg/ml, read-out: Suppression): 79%
- inhibition at 1 µg/mL ([1]; Homo sapiens, Lymphocyte, donor A/donor B, 1 μg/ml, read-out: Suppression): 80.1%
- inhibition at 10 pg/mL ([1]; Homo sapiens, Lymphocyte, donor C/donor D, 0.00001 μg/ml, read-out: Suppression): 37.7%
- inhibition at 0.0001 µg/mL ([1]; Homo sapiens, Lymphocyte, donor C/donor D, 0.0001 μg/ml, read-out: Suppression): 44%
- inhibition at 0.001 µg/mL ([1]; Homo sapiens, Lymphocyte, donor C/donor D, 0.001 μg/ml, read-out: Suppression): 67.9%
- inhibition at 0.01 µg/mL ([1]; Homo sapiens, Lymphocyte, donor C/donor D, 0.01 μg/ml, read-out: Suppression): 74.8%
- inhibition at 0.1 µg/mL ([1]; Homo sapiens, Lymphocyte, donor C/donor D, 0.1 μg/ml, read-out: Suppression): 79.2%
- inhibition at 1 µg/mL ([1]; Homo sapiens, Lymphocyte, donor C/donor D, 1 μg/ml, read-out: Suppression): 76.5%
- inhibition at 10 µg/mL ([1]; Homo sapiens, Lymphocyte, donor C/donor D, 10 μg/ml, read-out: Suppression): 88.8%
- IC50 ([1]; Homo sapiens, Lymphocyte, read-out: 50%-inhibition concentration (IC50)): 0.1 ng/mL (≈ 0.249 nM)
- inhibition at 10 µg/mL ([1]; Homo sapiens, Lymphocyte, read-out: Suppression): 100%
- 3H-thymidine uptake ([1]; donor A/donor B, 0.0001 μg/ml): 12769 cpm
- 3H-thymidine uptake ([1]; donor A/donor B, 0.001 μg/ml): 7190 cpm
- 3H-thymidine uptake ([1]; donor A/donor B, 0.01 μg/ml): 8138 cpm
- 3H-thymidine uptake ([1]; donor A/donor B, 0.1 μg/ml): 6922 cpm
- 3H-thymidine uptake ([1]; donor A/donor B, 1 μg/ml): 6690 cpm
- 3H-thymidine uptake ([1]; donor A/donor B, 10 μg/ml): 1082 cpm
- 3H-thymidine uptake ([1]; donor C/donor D, 0.00001 μg/ml): 10896 cpm
- 3H-thymidine uptake ([1]; donor C/donor D, 0.0001 μg/ml): 9806 cpm
- 3H-thymidine uptake ([1]; donor C/donor D, 0.001 μg/ml): 5646 cpm
- 3H-thymidine uptake ([1]; donor C/donor D, 0.01 μg/ml): 4460 cpm
- 3H-thymidine uptake ([1]; donor C/donor D, 0.1 μg/ml): 3613 cpm
- 3H-thymidine uptake ([1]; donor C/donor D, 1 μg/ml): 4167 cpm
- 3H-thymidine uptake ([1]; donor C/donor D, 10 μg/ml): 2018 cpm
- 3H-thymidine uptake ([2]; 24 hrs, 0.01 μg/ml): 6003 cpm
- 3H-thymidine uptake ([2]; 24 hrs, 0.1 μg/ml): 3722 cpm
- 3H-thymidine uptake ([2]; 24 hrs, 1 μg/ml): 3977 cpm
- 3H-thymidine uptake ([2]; 24 hrs, 10 μg/ml): 1968 cpm
- 3H-thymidine uptake ([2]; 48 hrs, 0.01 μg/ml): 19592 cpm
- 3H-thymidine uptake ([2]; 48 hrs, 0.1 μg/ml): 7324 cpm
- 3H-thymidine uptake ([2]; 48 hrs, 1 μg/ml): 4794 cpm
- 3H-thymidine uptake ([2]; 48 hrs, 10 μg/ml): 1649 cpm
- 3H-thymidine uptake ([2]; 72 hrs, 0.01 μg/ml, control 78515 cpm): 56688 cpm
- 3H-thymidine uptake ([2]; 72 hrs, 0.1 μg/ml, control 78515 cpm): 2436 cpm
- 3H-thymidine uptake ([2]; 72 hrs, 1 μg/ml, control 78515 cpm): 846 cpm
- 3H-thymidine uptake ([2]; 72 hrs, 10 μg/ml, control 78515 cpm): 478 cpm
- inhibition at 0.1 µg/mL ([2]; CTLL-2, 24 h): 45.5%
- inhibition at 10 µg/mL ([2]; CTLL-2, 72 h): 100%
- inhibition at 0.01 µg/mL ([2]; CTLL-2, 24 hrs, 0.01 μg/ml): 10.3%
- inhibition at 1 µg/mL ([2]; CTLL-2, 24 hrs, 1 μg/ml): 41.5%
- inhibition at 10 µg/mL ([2]; CTLL-2, 24 hrs, 10 μg/ml): 72.5%
- inhibition at 0.01 µg/mL ([2]; CTLL-2, 48 hrs, 0.01 μg/ml): 22.7%
- inhibition at 0.1 µg/mL ([2]; CTLL-2, 48 hrs, 0.1 μg/ml): 72.2%
- inhibition at 1 µg/mL ([2]; CTLL-2, 48 hrs, 1 μg/ml): 82.4%
- inhibition at 10 µg/mL ([2]; CTLL-2, 48 hrs, 10 μg/ml): 95.1%
- inhibition at 0.01 µg/mL ([2]; CTLL-2, 72 hrs, 0.01 μg/ml, control 78515 cpm): 28%
- inhibition at 0.1 µg/mL ([2]; CTLL-2, 72 hrs, 0.1 μg/ml, control 78515 cpm): 97.7%
- inhibition at 1 µg/mL ([2]; CTLL-2, 72 hrs, 1 μg/ml, control 78515 cpm): 99.8%
- Number of PFC per 1 × 10^7 cell ([3]; 0.3 mg/kg/day i.p.): 1.4 ± 0.4 × 10^3 /1 × 10^7 cell
- Number of PFC per spleen ([3]; 0.3 mg/kg/day i.p.): 0.9 ± 0.3 × 10^4 /spleen
- Number of PFC per 1 × 10^7 cell ([3]; 1 mg/kg/day i.p.): 0.5 ± 0.2 × 10^3 /1 × 10^7 cell
- Number of PFC per spleen ([3]; 1 mg/kg/day i.p.): 0.3 ± 0.1 × 10^4 /spleen
- Number of PFC per 1 × 10^7 cell ([3]; 3 mg/kg/day i.p.): 0.2 ± 0.1 × 10^3 /1 × 10^7 cell
- Number of PFC per spleen ([3]; 3 mg/kg/day i.p.): 0.1 ± 0.0 × 10^4 /spleen
- Number of spleen cells ([4]; 0.3 mg/kg/day): 1.4 ± 0.3 × 10^8 cell
- Number of spleen cells ([4]; 1 mg/kg/day): 1.3 ± 0.4 × 10^8 cell
- Number of spleen cells ([4]; 3 mg/kg/day): 1.3 ± 0.2 × 10^8 cell
- Body weight ([4]; 0.3 mg/kg/day): 23 ± 2 g
- Wet weight spleen ([4]; 0.3 mg/kg/day): 202 ± 4 mg
- Wet weight thymus ([4]; 0.3 mg/kg/day): 48 ± 5 mg
- Body weight ([4]; 1 mg/kg/day): 23 ± 1 g
- Wet weight spleen ([4]; 1 mg/kg/day): 206 ± 32 mg
- Wet weight thymus ([4]; 1 mg/kg/day): 50 ± 1 mg
- Body weight ([4]; 3 mg/kg/day): 19 ± 1 g
- Wet weight spleen ([4]; 3 mg/kg/day): 137 ± 17 mg
- Wet weight thymus ([4]; 3 mg/kg/day): 25 ± 14 mg
